The test system of data set [1] is AMPA receptor. Kind of data set: In vivo electrophysiology: field EPSP amplitude in the dentate gyrus of anesthetized animals. Further details: species or system rat. As to the method: A. Enhancement of AMPA Receptor Function In Vivo.
Synaptic responses mediated by AMPA receptors are increased according to the method of the invention, using the compounds described herein.
(§1) The electrophysiological effects of the invention compounds were tested in vivo in anesthetized animals according to the following procedures. Animals are maintained under anesthesia by phenobarbital administered using a Hamilton syringe pump. Stimulating and recording electrodes are inserted into the perforant path and dentate gyrus of the hippocampus, respectively. Once electrodes are implanted, a stable baseline of evoked responses are elicited using single monophasic pulses (100 μs pulse duration) delivered at 3/min to the stimulating electrode. Field EPSPs are monitored until a stable baseline is achieved (about 20-30 min), after which a solution of test compound is injected intraperitoneally and evoked field potentials are recorded. Evoked potentials were recorded for approximately 2 h following drug administration or until the amplitude of the field EPSP returns to baseline. In the latter instance, it is common that an iv administration is also carried out with an appropriate dose of the same test compound. Invention compounds were assayed in the in vivo electrophysiology assay described above and data for representative test compounds is shown in column 1 in Table 1.
The electrophysiological effects of invention compounds were tested in vivo in anesthetized animals according to the following procedures.
as §1, with “Animals” for “The electrophysiological effects of the invention compounds were tested in vivo in anesthetized animals according to the following procedures. Animals”, “are” for “were”, “compound.” for “compound. Invention compounds were assayed in the in vivo electrophysiology assay described above and data for representative test compounds is shown in column 1 in Table 1.”

The test system of data set [2] is d-amphetamine stimulated locomotion in mice. Briefly: Inhibition of d-amphetamine stimulated locomotion. As to conditions: Mus musculus, ip, 18 mpk i.p., d-amphetamine 2 mg/kg. The class given is in vivo. As to the method:
B. Behavioral Testing: Inhibition of d-Amphetamine Stimulated Locomotion
The ability of the invention compounds to inhibit d-Amphetamine stimulated locomotor activity was assayed according to the following procedure. Male CD1 mice, 25-30 gm body weight, were brought into the experimental room and allowed at least 30 min of acclimation. Each mouse was placed into the testing enclosure with an infrared beam array that automatically monitors the animal's activity. Mice were habituated in the testing enclosure for 20 min, and then returned to their home cage. Mice were dosed intraperitoneally with test compound in appropriate vehicle 5 minutes before d-Amphetamine injection (2 mpk). Ten minutes after d-Amphetamine injection, mice were tested for locomotor activity for a total of […]. The data was computer collected and expressed as “arbitrary movement units.” All data were analyzed by comparing the groups treated with the test compound to the vehicle control group. The data shown is the % inhibition of hyperactivity induced by acute administration of 2 mg/kg d-amphetamine in mice. The compounds tested produced a statistically significant inhibition of d-amphetamine stimulated locomotion.
Male CD1 mice, 25-30 gm body weight, were brought into the experimental room and allowed at least 30 min of acclimation. Each mouse was placed into the testing enclosure with an infrared beam array that automatically monitors the animal's activity. Mice were habituated in the testing enclosure for 20 min, and then returned to their home cage. Mice were dosed intraperitoneally with test compound in appropriate vehicle 5 minutes before d-Amphetamine injection. Ten minutes after d-Amphetamine injection, mice were tested for locomotor activity for a total of 15 minutes. The data was computer collected and expressed as “arbitrary movement units.” All data were analyzed by comparing the groups treated with the test compound to the vehicle control group.

Setting [3] is: dosed intravenously (footnote 3).

For orientation: inhibition in vivo means the share of the control response that was lost under treatment. What is called melting point is the temperature of the solid-liquid transition.

For `O=C(c1ccc2nccnc2c1)N1CCCCC1` [CX516, 1-(quinoxalin-6-ylcarbonyl)piperidine, reference compound], the “increase in amplitude of the field EPSP” value in data set [1] (rat dentate gyrus, 50 mg/kg i.p.) is reported as 9%. `CN(C(=O)c1ccc2nonc2c1)C1CCCCC1` [Example 4, N-Cyclohexyl-N-methyl-[2,1,3]-benzoxadiazole-5-carboxamide]: the melting point is 134 to 135 °C. The “In vivo Electrophysiology: % increase in the amplitude of the field EPSP in the dentate gyrus of rat” value (shortened to “In vivo Electrophysiology: % increase”) in data set [1] (10mpk i.p.) is 17%. Besides, the inhibition in vivo at 18 mg/kg in data set [2] amounted to 80%.

As to `CN(C(=O)c1ccc2nonc2c1)C1CCCC1` [Example 5, N-Cyclopentyl-N-methyl-[2,1,3]-benzoxadiazole-5-carboxamide], the melting point was 110 to 111 °C. For the same compound, in data set [1] (10mpk i.p.), the “In vivo Electrophysiology: % increase” value was 15%. Compound `CN(C(=O)c1ccc2nonc2c1)C1CCC1` [Example 6, N-Cyclobutyl-N-methyl-[2,1,3]-benzoxadiazole-5-carboxamide] yielded a melting point of 51 to 52 °C. For the same compound, the “In vivo Electrophysiology: % increase” value in data set [1] (10mpk i.p.) was 10%. The inhibition in vivo at 18 mg/kg in data set [2] came out at 37%. `CN(C(=O)c1ccc2nonc2c1)[C@H]1CC[C@@H](C#N)CC1` [Example 10, N-(cis-4-Cyanocyclohexyl)-N-methyl-[2,1,3]-benzoxadiazole-5-carboxamide] gave a melting point of 222 to 223 °C. In the case of `CN(C(=O)c1ccc2nonc2c1)[C@H]1CC[C@H](C#N)CC1` [Example 11, N-(trans-4-cyanocyclohexyl)-N-methyl-[2,1,3]-benzoxadiazole-5-carboxamide], in data set [1] (10mpk i.p.), the “In vivo Electrophysiology: % increase” value is 12%.

As to `CN(C(=O)c1ccc2nonc2c1)C1CCOCC1` [Example 12, N-Methyl-N-tetrahydro-2H-pyran-4-yl-[2,1,3]-benzoxadiazole-5-carboxamide], the “In vivo Electrophysiology: % increase” value in data set [1] (10mpk i.p.) is 20%. Further, the inhibition in vivo at 18 mg/kg in data set [2] turned out to be 66%. In the case of `O=C(NC1CCCOC1)c1ccc2nonc2c1` (stereo not shown) [Example 15, N-(Tetrahydro-2H-pyran-3-yl)-[2,1,3]-benzoxadiazole-5-carboxamide], the melting point fell in the range of 204 to 205 °C. Take `CCN(C(=O)c1ccc2nonc2c1)C1CCOCC1` [Example 17, N-Ethyl-N-tetrahydro-2H-pyran-4-yl-[2,1,3]-benzoxadiazole-5-carboxamide]: the melting point was 102 to 104 °C. In addition, the “In vivo Electrophysiology: % increase” value in data set [1] (10mpk i.p.) was determined as 12%. The inhibition in vivo at 18 mg/kg in data set [2] was 23%.

`CCN(C(=O)c1ccc2nonc2c1)C1CCCCC1` [Example 18, N-Cyclohexyl-N-ethyl-[2,1,3]-benzoxadiazole-5-carboxamide] showed a melting point of 51 to 52 °C. As to `CN(CC1CCCCC1)C(=O)c1ccc2nonc2c1` [Example 19, N-(Cyclohexylmethyl)-N-methyl-[2,1,3]-benzoxadiazole-5-carboxamide], the melting point lay in the range of 71 to 72 °C. Compound `CN(Cc1ccccc1)C(=O)c1ccc2nonc2c1` [Example 20, N-Benzyl-N-methyl-[2,1,3]-benzoxadiazole-5-carboxamide] showed a melting point of 105 to 106 °C.

In turn, `O=C(c1ccc2nonc2c1)N(C1CCOCC1)C1CC1` [Example 24, N-Cyclopropyl-N-tetrahydro-2H-pyran-4-yl-[2,1,3]-benzoxadiazole-5-carboxamide] gave a melting point of 108 to 109 °C. The compound `O=C(c1ccc2nonc2c1)N(CC(F)(F)F)C1CCOCC1` [Example 25, N-Tetrahydro-2H-pyran-4-yl-N-(2,2,2-trifluoroethyl)-[2,1,3]-benzoxadiazole-5-carboxamide] showed a melting point of 134 to 135 °C. The “In vivo Electrophysiology: % increase” value in data set [1] (setting [3]) came to 10%^3. `CN(C(=O)c1ccc2nonc2c1)C1CCN(C(=O)OC(C)(C)C)CC1` [Example 26, tert-Butyl-4-[([2,1,3]-benzoxadiazol-5-ylcarbonyl)(methyl)amino]piperidine-1-carboxylate]: the melting point fell in the range of 98 to 100 °C. Same read-out and setting: the figure for `CN1CCC(N(C)C(=O)c2ccc3nonc3c2)CC1` [Example 28, N-Methyl-N-(1-methylpiperidin-4-yl)-[2,1,3]-benzoxadiazole-5-carboxamide] is over 260 °C.

`CN(C(=O)c1ccc2nonc2c1)C1CCSCC1` [Example 33, N-Methyl-N-(tetrahydro-2H-thiopyran-4-yl)-[2,1,3]-benzoxadiazole-5-carboxamide]: the “In vivo Electrophysiology: % increase” value in data set [1] (setting [3]) was determined as 16%^3. The compound `CN(C(=O)c1ccc2nccnc2c1)C1CCOCC1` [Example 36, N-Methyl-N-tetrahydro-2H-pyran-4-ylquinoxaline-6-carboxamide] displayed a melting point of 130 to 131 °C. Further, in data set [1] (setting [3]), the “In vivo Electrophysiology: % increase” value amounted to 5%^3. `CN(C(=O)c1ccc2nonc2c1)[C@H]1CC[C@H](O)CC1` [Example 51, N-(4-trans-Hydroxycyclohexyl)-N-methyl-[2,1,3]-benzoxadiazole-5-carboxamide]: the “In vivo Electrophysiology: % increase” value in data set [1] (10mpk i.p.) was found to be 21%. In data set [2], this compound gave an inhibition in vivo at 18 mg/kg of 100%.

As to `CO[C@H]1CC[C@H](N(C)C(=O)c2ccc3nonc3c2)CC1` [Example 53, N-(trans-4-Methoxycyclohexyl)-N-methyl-[2,1,3]-benzoxadiazole-5-carboxamide], the “In vivo Electrophysiology: % increase” value in data set [1] (10mpk i.p.) is listed as 17%. The compound also yielded an inhibition in vivo at 18 mg/kg in data set [2] of 94%. As for `CO[C@H]1CC[C@H](N(C)C(=S)c2ccc3nonc3c2)CC1` [Example 54, N-(trans-4-Methoxycyclohexyl)-N-methyl-[2,1,3]-benzoxadiazole-5-carbothioamide], in data set [1] (setting [3]), the “In vivo Electrophysiology: % increase” value amounted to 18%^3. Regarding `CN(C(=O)c1ccc2nonc2c1)[C@H]1CC[C@H](n2ncnn2)CC1` [Example 56, N-Methyl-N-[trans-4-(2H-tetrazol-2-yl)cyclohexyl]-[2,1,3]-benzoxadiazole-5-carboxamide], in data set [1] (10mpk i.p.), the “In vivo Electrophysiology: % increase” value amounted to 19%. Take `CN(C(=O)c1ccc2nonc2c1)C1CCCC(F)(F)C1` (stereo not shown) [Example 62, N-Methyl-N-(3,3-difluorocyclohexyl)-[2,1,3]-benzoxadiazole-5-carboxamide]: the melting point was 119 to 120 °C.

Compound `CN(C(=O)c1ccc2nonc2c1)C1CCCCC1(F)F` (stereo not shown) [Example 65, N-Methyl-N-(2,2-difluorocyclohexyl)-[2,1,3]-benzoxadiazole-5-carboxamide] came in with a melting point of 101 to 102 °C. `O=C(NC1CCOC(O)C1)c1ccc2nonc2c1` (stereo not shown) [Example 66, N-(2-Hydroxytetrahydro-2H-pyran-4-yl)-[2,1,3]-benzoxadiazole-5-carboxamide] yielded a melting point of 91 to 92 °C. The same measure, in the same setting: to `CN(C(=O)c1ccc2nonc2c1)C1CCOC(=O)C1` (stereo not shown) [Example 68, N-Methyl-N-(2-oxotetrahydro-2H-pyran-4-yl)-[2,1,3]-benzoxadiazole-5-carboxamide] belongs 169 to 171 °C.

In turn, `CN(C(=O)c1ccc2nonc2c1)C1CCOC(O)C1` (stereo not shown) [Example 69, N-(2-Hydroxytetrahydro-2H-pyran-4-yl)-N-methyl-[2,1,3]-benzoxadiazole-5-carboxamide] gave a melting point of under 90 °C. Turning to `CN(C(=O)c1ccc2nonc2c1)[C@@H]1CCOC1` [Example 73, N-Methyl-N—(R)-tetrahydrofuran-3-yl-[2,1,3]-benzoxadiazole-5-carboxamide], the “In vivo Electrophysiology: % increase” value in data set [1] (10mpk i.p.) is 13%.

The record behind these values is patent publication US8642633B2, “Di-substituted amides for enhancing glutamatergic synaptic responses” (Cortex Pharmaceutical, Inc., priority 2007, dated 2014).
